Experimental findings from publication PMC10974276, “Physiological Functions of the Cello-Oligosaccharides Binding CebE in the Pathogenic Streptomyces sp. AMCC400023” (Microorganisms, 2024) are described below.

The target in one test is T1, CebE^5601.
T1 construct: N-terminal His tag (pET28a); E. coli BL21(C43); Ni-NTA; labelled with red fluorescent dye
The test can be described thus: microscale thermophoresis. It counts as binding, Streptomyces sp. AMCC400023. The conditions noted are these: 25 °C; protein 800 nM, dye-labelled; ligand series from 100 µM. (In MST a laser heats a spot of the sample, and binding alters the fluorescence response.)

Another test concerns the target T2, CebE^7671.
T2 construct: N-terminal His tag (pET28a); E. coli BL21(C43); Ni-NTA
Put plainly: microscale thermophoresis. The test is classed as binding, Streptomyces sp. AMCC400023. The settings on record: 25 °C; protein 800 nM, dye-labelled; ligand series from 270 mM.

What is called Kd is the equilibrium constant for the complex coming apart. Higher therefore signals a looser complex. Take `OC[C@H]1O[C@@H](O[C@H]2[C@H](O)[C@@H](O)C(O)O[C@@H]2CO)[C@H](O)[C@@H](O)[C@@H]1O` (stereo partly shown) [cellobiose]: the values for the equilibrium dissociation constant (Kd) at CebE^5601 and on CebE^7671 were 977 nM and 1.28 mM, respectively.

`OC[C@H]1O[C@@H](O[C@H]2[C@H](O)[C@@H](O)[C@H](O[C@H]3[C@H](O)[C@@H](O)C(O)O[C@@H]3CO)O[C@@H]2CO)[C@H](O)[C@@H](O)[C@@H]1O` (stereo partly shown) [cellotriose]: the figures for the dissociation constant (Kd) at CebE^5601 and at CebE^7671 were 1610 nM and 2.72 mM, respectively.
